These results are taken from patent publication US4472428A, “Halogenated prostacyclins pharmaceutical use thereof and hydroxy intermediates therefore” (Teijin Limited, priority 1980, dated 1984).

Data set [1] has as its system 15-position dehydrogenase. The following applies: cited from earlier work.
A further data set deals with heart rate. In words: action on heart rate, intravenous injection in anesthetized rats. It is filed as in vivo, rats (male wister). Particulars: Rattus norvegicus, i.v., read-out: H-ED10 (dosage causing a 10% increase of the heart rate). The protocol: (§1) Measurement of the hypotensive activity:
(§2) The actions of the prostacyclin derivatives of the invention on the blood pressure and heart rate of rats were examined by intravenous injection under anesthesia.
(§3) Male wister rats weighing about 250 g were used. Urethane (500 mg/kg) and α-chloralose (100 mg/kg) were intraperitoneally administered to the rats. The rats were anesthetized and fixed in place.
(§4) Each of the test compounds was dissolved in a small amount of ethanol and diluted with 0.05M Tris buffer saline (pH 9) to adjust the final ethanol concentration to not more than 5%. The solution was intravenously injected into the rats through a catheter inserted into the femoral vein.
(§5) The blood pressure of the rats was measured by a pressure transducer through a catheter inserted into the carotid artery of the rats. The heart rate was determined from the blood pressure pulse.
(§6) The action of the test compound on the blood pressure was expressed as the dosage (P-ED20, μg/kg) of the test compound which caused a 20% lowering of the mean blood pressure before administration of the compound. The action of the test compound on the heart rate was expressed as the dosage (H-ED10, μg/kg) of the test compound which caused a 10% increase of the heart rate from the heart rate before administration of the test compound.

Data set [2] deals with blood pressure / platelet aggregation. As to the kind of experiment: ratio of the blood pressure lowering activity and the platelet aggregation inhibiting activity. Set-up: species or system rats (blood pressure); rabbits (platelets). The following applies: P-ED20 rats i.v.; IC50 rabbit platelets in vitro. The protocol:
(2) From the results obtained in Examples 100 and 101, the ratio of the blood pressure lowering activity and the platelet aggregation inhibiting activity was calculated. The result is shown in Table 3 together with the ratio obtained with PGI2.

Data set [3] relates to platelet aggregation / blood pressure. Particulars: cited from earlier work.
The conditions of data set [4]: cited from earlier work.
For the next data set, the system named is blood pressure. As to the kind of experiment: hypotensive activity, intravenous injection in anesthetized rats. The format is in vivo, rats (male wister). The following applies: Rattus norvegicus, iv, anesthetized rats; read-out: P-ED20 (dosage causing a 20% lowering of the mean blood pressure). The protocol: as §1, §2, §3, §4, §5, §6
The next data set concerns platelet aggregation. In words: in vitro inhibitory activity of platelet aggregation (ADP-induced, rabbit PRP). It is filed as cell-based, rabbit (Japanese domestic white male). The following applies: Oryctolagus cuniculus, Platelet, rabbit PRP, 10 μM ADP, 37° C., read-out: IC50 (minimum concentration which inhibited more than 50% of platelet aggregation). The protocol: (1) in vitro inhibitory activity of platelet aggregation:
The in vitro platelet aggregation inhibiting activities of the compounds of the invention were examined by using rabbits. Blood was withdrawn from the ear vein of Japanese domestic white male rabbits weighing 2.5 to 3.5 kg. A mixture of a 3.8% trisodium citrate solution and the blood in a ratio of 1:9 was centrifuged at a speed of 1000 rpm for 10 minutes. The upper layer was separated as platelet-rich plasma (PRP). The lower layer was further centrifuged at a speed of 2800 rpm for 10 minutes. The upper layer was separated as platelet-poor plasma (PPP). The number of platelets was adjusted to 6×10^5 /μl to 7×10^5 /μl by diluting the PRP with PPP. 25 microliters of the test compounds prepared as shown below was added in an amount of 25 to 250 microliters of PRP after the adjustment, and the mixture was pre-incubated at 37° C. for 2 minutes, and then 10 μM (final) of ADP was added. By using an aggregometer, changes in transmission were recorded.
The drug was dissolved in ethanol to a concentration of 10 mg/ml. When its activity was measured, it was used after being diluted with phosphate buffer (pH 7.4). Furthermore, after dilution with the buffer, the drug was left to stand at 0° C. for 4 hours, and the activity of the drug was similarly measured.
The rate of inhibition of platelet aggregation was determined from the following equation.
Inhibition rate (%)=(1-T/To)×100
To : the transmittance of the system containing the phosphate buffer,
T: the transmittance of the system to which the test drug was added.
The minimum concentration of the drug which inhibited more than 50% of platelet aggregation was shown as an IC50 value.

SMILES strings stand for the structures. In brackets after ≈: the same amount, converted by molar mass. Where two headings read alike, the source gives them in different places.

Regarding `CCCCC[C@H](O)/C=C/[C@@H]1[C@H]2C/C(=C/CCCC(=O)O)O[C@H]2C[C@H]1O` [PGI2, Prostaglandin I2, reference compound], in data set [1], the metabolism in vivo result is listed as “rapidly metabolized by a 15-position dehydrogenase”. In addition, the ED10 in the data set on heart rate came out at 0.04 µg/kg. Besides, the “P-ED20 / platelet IC50” value in data set [2] is 4.3. Further, the “doses required for platelet aggregation inhibiting action and antihypertensive action” value in data set [3] was “almost equal to each other”. Moreover, the “half period of its activity at physiological pH” value in data set [4] is reported as “only about several minutes”. The ED20 with blood pressure is 0.02 µg/kg. Further, the IC50 in the data set with platelet aggregation (0 hr) amounted to 0.0047 µg/mL (≈ 0.0133 µM); in the data set on platelet aggregation (4 hr standing at 0° C. after dilution with phosphate buffer pH 7.4) it was 0.56 µg/mL (≈ 1.59 µM).
